For data set [1] the following is noted: human.
Data set [2] is described as follows: Highest frequency of moderate liver toxicity observed during clinical trials, expressed as a percentage. [column '% BIOL' in source]. The settings on record: human.
The conditions of data set [3]: human. The source holds these as a separate data set.
The conditions of data set [4]: human. This is another data set of the same source.
For data set [5] the following is noted: human. The source holds these as a separate data set.
The conditions of data set [6]: human. This is another data set of the same source.
For data set [7] the following is noted: human. The source holds these as a separate data set.
A short description of data set [8]: Highest frequency of acute liver toxicity observed during clinical trials, expressed as a percentage. [column '% AIGUE' in source]. Particulars: human.
The conditions of data set [9]: human. The source holds these as a separate data set.
The conditions of data set [10]: human. The source holds these as a separate data set.
The conditions of data set [11]: human, serum, 4383 h.
For data set [12] the following is noted: human, serum.
The conditions of data set [13]: human. The source holds these as a separate data set.
The conditions of data set [14]: human, serum. The source holds these as a separate data set.

The structures appear in SMILES notation.
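For Hepatotoxicity (association with vascular disease) in this document: count of indexed literature references reporting vascular liver injury in humans, e.g. peliosis hepatitis, hepatic veno-occlusive disease or Budd-Chiari syndrome.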
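For Hepatotoxicity (benign tumour) in this document: value is a count of indexed literature references citing a benign tumour confirmed by histopathology.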
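For Hepatotoxicity (choleostasis) in this document: human cholestatic liver injury, shown by histopathology or by peak ALT or AST elevation over alkaline phosphatase ratio below 2, value counts indexed literature reports.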
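For Hepatotoxicity (chronic liver disease) in this document: chronic liver injury confirmed by histopathology or persistently raised serum aminotransferase activity beyond 6 months, value given as the count of indexed literature references.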
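For Hepatotoxicity (cirrhosis) in this document: value is a count of indexed literature references reporting cirrhosis confirmed by histopathology.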
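For Hepatotoxicity (cytolytic) in this document: human cytolytic liver injury, shown by histopathology or by a ratio above 5 of peak ALT or AST elevation to alkaline phosphatase elevation, value counts indexed references.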
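For Hepatotoxicity (granulomatous hepatitis) in this document: value is a count of indexed literature references reporting granulomatous liver disease confirmed by histopathology.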
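For Hepatotoxicity (malignant tumour) in this document: malignant tumour confirmed by histopathology, value gives the count of indexed literature references reporting it.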
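For Hepatotoxicity (severe hepatitis) in this document: human clinical data: severe hepatitis, meaning potentially life-threatening liver failure or clinically observed cases, the value counts how many indexed literature references report it.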
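For Hepatotoxicity (steatosis) in this document: steatosis confirmed by histopathology, value is the count of indexed references.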

Turning to `CC(C)(C)c1ccc(CCC(O)COc2ccc(C(=O)O)cc2)cc1` (stereo not given) [LIFIBROL], the “Hepatotoxicity (severe hepatitis)” value in data set [1] is 0. The results for the “Hepatotoxicity (moderate)” value in data set [2] and in data set [12] were 3.9% and 1, respectively. Also, in data set [3], the “Hepatotoxicity (granulomatous hepatitis)” value is given as 0. In addition, in data set [4], the “Hepatotoxicity (steatosis)” value stood at 0. For the same compound, the “Hepatotoxicity (choleostasis)” value in data set [5] is 0. In data set [6], the “Hepatotoxicity (association with vascular disease)” value is listed as 0. Further, the “Hepatotoxicity (cirrhosis)” value in [7] turned out to be 0. The figures for the “Hepatotoxicity (acute)” value in [8] and in data set [14] were 0% and 0, respectively. Moreover, the “Hepatotoxicity (cytolytic)” value in data set [9] was 0. Moreover, the “Hepatotoxicity (benign tumour)” value in data set [10] is 0. Also, the “Hepatotoxicity (chronic liver disease)” value in [11] amounted to 0. Also, in data set [13], the “Hepatotoxicity (malignant tumour)” value stood at 0.

With `CCOC(=O)C1=C[C@@H](OC(CC)CC)[C@H](NC(C)=O)[C@@H](N)C1` [OSELTAMIVIR], the “Hepatotoxicity (severe hepatitis)” value in [1] is reported as 0. Also, the “Hepatotoxicity (moderate)” value stood at 0% in data set [2] and 0 in data set [12]. In addition, the “Hepatotoxicity (granulomatous hepatitis)” value in data set [3] is 0. Moreover, the “Hepatotoxicity (steatosis)” value in data set [4] was found to be 0. The “Hepatotoxicity (choleostasis)” value in [5] is on record as 0. The “Hepatotoxicity (association with vascular disease)” value in data set [6] was found to be 0. For the same compound, the “Hepatotoxicity (cirrhosis)” value in data set [7] is recorded as 0. In addition, the “Hepatotoxicity (acute)” value in [8] was found to be 0%; in data set [14], 1. The “Hepatotoxicity (cytolytic)” value in data set [9] came to 0. Further, the “Hepatotoxicity (benign tumour)” value in [10] was 0. For the same compound, the “Hepatotoxicity (chronic liver disease)” value in data set [11] was determined as 0. For the same compound, the “Hepatotoxicity (malignant tumour)” value in [13] stood at 0.

As to `CC(C)NCC1CCc2cc(CO)c([N+](=O)[O-])cc2N1` (stereo not given) [OXAMNIQUINE], the “Hepatotoxicity (severe hepatitis)” value in data set [1] is given as 0. Further, the “Hepatotoxicity (moderate)” value in [2] was 0%; in data set [12], 3. In data set [3], the “Hepatotoxicity (granulomatous hepatitis)” value is on record as 0. In addition, the “Hepatotoxicity (steatosis)” value in data set [4] was determined as 0. Besides, in data set [5], the “Hepatotoxicity (choleostasis)” value is 0. For the same compound, in [6], the “Hepatotoxicity (association with vascular disease)” value is 0. In [7], the “Hepatotoxicity (cirrhosis)” value amounted to 0. Further, the “Hepatotoxicity (acute)” value in data set [8] worked out at 0%; in data set [14], 0. The “Hepatotoxicity (cytolytic)” value in data set [9] is 0. For the same compound, in [10], the “Hepatotoxicity (benign tumour)” value is 0. Further, the “Hepatotoxicity (chronic liver disease)” value in [11] stood at 0. Besides, the “Hepatotoxicity (malignant tumour)” value in [13] is recorded as 0.

Regarding `COc1ccc(-c2noc(CC(=O)O)c2-c2ccc(OC)cc2)cc1` [MOFEZOLAC], the “Hepatotoxicity (severe hepatitis)” value in data set [1] came to 0. In addition, the “Hepatotoxicity (moderate)” value turned out to be 0% in data set [2] and 1 in data set [12]. For the same compound, the “Hepatotoxicity (granulomatous hepatitis)” value in [3] is 0. Further, in data set [4], the “Hepatotoxicity (steatosis)” value came to 0. In addition, in [5], the “Hepatotoxicity (choleostasis)” value is listed as 0. The “Hepatotoxicity (association with vascular disease)” value in data set [6] is recorded as 0. For the same compound, the “Hepatotoxicity (cirrhosis)” value in data set [7] worked out at 0. The entries for the “Hepatotoxicity (acute)” value in data set [8] and in data set [14] were 0% and 0, respectively. The “Hepatotoxicity (cytolytic)” value in [9] was 0. Moreover, the “Hepatotoxicity (benign tumour)” value in data set [10] was 0. Besides, the “Hepatotoxicity (chronic liver disease)” value in [11] came to 0. Also, the “Hepatotoxicity (malignant tumour)” value in [13] is recorded as 0.

Take `CC(=O)OCC1=C(C(=O)O)N2C(=O)[C@@H](NC(=O)CC#N)[C@H]2SC1`: the “Hepatotoxicity (severe hepatitis)” value in data set [1] stood at 0. For the same compound, the results for the “Hepatotoxicity (moderate)” value in [2] and in data set [12] were 29.6% and 1, respectively. Moreover, the “Hepatotoxicity (granulomatous hepatitis)” value in [3] turned out to be 0. Further, the “Hepatotoxicity (steatosis)” value in [4] was determined as 0. Moreover, the “Hepatotoxicity (choleostasis)” value in [5] turned out to be 0. The “Hepatotoxicity (association with vascular disease)” value in [6] is given as 0. The “Hepatotoxicity (cirrhosis)” value in [7] is 0. The figures for the “Hepatotoxicity (acute)” value in [8] and in [14] were 0% and 0, respectively. Also, in [9], the “Hepatotoxicity (cytolytic)” value came out at 0. For the same compound, the “Hepatotoxicity (benign tumour)” value in [10] is 0. For the same compound, the “Hepatotoxicity (chronic liver disease)” value in data set [11] turned out to be 0. In data set [13], the “Hepatotoxicity (malignant tumour)” value was 0.

Source of the values: ChEMBL document CHEMBL3137667, “[Drug-induced liver injury; fourteenth updated edition of the bibliographic database of liver injuries and related drugs]” (Gastroenterol Clin Biol, 2004).
